The values below come from ChEMBL document CHEMBL4251604, “Design, synthesis and biological evaluation of 1, 4-dihydro indeno[1,2-c] pyrazole linked oxindole analogues as potential anticancer agents targeting tubulin and inducing p53 dependent apoptosis” (Eur J Med Chem, 2018).

Activity calls are given as the source filed them. The calls are words filed in the database; no cut-off is given here.

As usually defined, the IC50 is the concentration needed to halve the response being measured.

Experiment [1] relates to HeLa. Description: Inhibition of microtubules in human HeLa cells assessed as induction of disorganized spindle fibers formation at 5 uM after 24 hrs by DAPI staining-based confocal microscopic analysis. It is filed as cell-based.
Experiment [2] has as its system HeLa. In words: Inhibition of microtubules in human HeLa cells assessed as induction of cell cycle arrest in metaphase at 5 uM after 24 hrs by DAPI staining-based confocal microscopic analysis.
In experiment [3] the test system is HEK293. Description: Antiproliferative activity against HEK293 cells after 24 hrs by SRB assay. The format is cell-based. The conditions noted are these: Homo sapiens, HEK293, 24 h. (In general: The SRB assay estimates cell density from bound dye.)
Experiment [4] relates to HeLa. Description: Cell cycle arrest in human HeLa cells assessed as accumulation of cells at G2/M phase at 5 uM after 24 hrs by propidium iodide staining-based flow cytometric analysis (reference value: 16.4%). It is filed as functional. On the technique in general: A flow cytometer gives signals particle by particle.
For experiment [5], the system named is A549. In words: Antiproliferative activity against human A549 cells after 24 hrs by SRB assay. The format is functional, cell-based. The conditions noted are these: A549, 24 h.
Experiment [6] has as its system MDA-MB-231. Description: Antiproliferative activity against human MDA-MB-231 cells after 24 hrs by SRB assay. The format is functional, cell-based. The conditions noted are these: MDA-MB-231, 24 h.
Experiment [7] concerns HeLa. In words: Antiproliferative activity against human HeLa cells after 24 hrs by SRB assay. It is filed as functional, cell-based.
In experiment [8] the test system is HeLa. Description: Inhibition of microtubules in human HeLa cells assessed as increase in CDK1 protein level at 5 uM affter 24 hrs by Western blot analysis. It is filed as cell-based. A general note: Immunoblotting shows a protein as a band on a membrane.
Experiment [9] concerns HeLa. In words: Induction of apoptosis in human HeLa cells assessed as increase in caspase-3 activation at 5 uM after 24 hrs by fluorescence assay. It is filed as functional, cell-based.
Experiment [10] has as its system HeLa. In words: Inhibition of microtubules in human HeLa cells assessed as increase in cyclin B1 protein level at 5 uM affter 24 hrs by Western blot analysis. The format is cell-based.
Experiment [11] addresses Tubulin (Homo sapiens) (UniProt P68371+Q9H4B7+P0DPH7+P68366+Q13509+Q71U36+P04350+Q3ZCM7+P07437+P68363+Q9BQE3+Q6PEY2+Q13885+Q9BVA1+Q9BUF5). Description: Inhibition of tubulin polymerization in human HeLa cells assessed as reduction in polymerized tubulin expression at 5 uM affter 24 hrs by Western blot analysis. It is filed as cell-based.
The test system of experiment [12] is HeLa. In words: Induction of apoptosis in human HeLa cells assessed as increase in p21 expression at 5 uM after 24 hrs by Western blot analysis. It is filed as functional, cell-based.
For experiment [13], the system named is HeLa. In words: Induction of apoptosis in human HeLa cells assessed as increase in Bax expression at 5 uM after 24 hrs by Western blot analysis. The format is functional, cell-based.
Experiment [14] relates to HeLa. In words: Induction of apoptosis in human HeLa cells assessed as increase in Bax expression at 5 uM after 24 hrs by DAPI staining-based immunocytochemistry. The format is functional, cell-based.
Experiment [15] concerns HeLa. Description: Induction of apoptosis in human HeLa cells assessed as increase in p53 expression at 5 uM after 24 hrs by DAPI staining-based immunocytochemistry. The format is functional, cell-based.
Experiment [16] concerns HeLa. In words: Induction of apoptosis in human HeLa cells assessed as increase in p53 expression at 5 uM after 24 hrs by Western blot analysis. The format is functional, cell-based.

With `COc1ccc(/C=C\c2cc(OC)c(OC)c(OC)c2)cc1O` [COMBRETASTATIN A4], the inhibition result in experiment [1] and in experiment [2] was “Active” in each case. The IC50 was found to be 1.73 µM in experiment [3], 1.15 µM in [5], 0.92 µM in experiment [6] and 1.43 µM in [7]. For the same compound, in experiment [4], the Activity worked out at 55.8%.

For the compound `COc1ccc2c(c1)-c1n[nH]c(/C=C3\C(=O)Nc4ccc(Cl)cc43)c1C2`, the IC50 was found to be 27.4 µM in [3], 17.6 µM in experiment [5], 20.8 µM in [6] and 17.5 µM in experiment [7].

Turning to `COc1cc2c(cc1OC)-c1n[nH]c(/C=C3\C(=O)Nc4ccc(Br)cc43)c1C2`, the IC50 came to 19.6 µM in experiment [3], 17.1 µM in experiment [5], 18.7 µM in [6] and 11.5 µM in experiment [7].

With `O=C1Nc2ccccc2/C1=C/c1[nH]nc2c1Cc1ccccc1-2`, the IC50 in experiment [3] was determined as 24.3 µM; in experiment [5], 16.6 µM; in experiment [6] it was 19 µM; in [7], 11.7 µM.

Consider `O=C1Nc2ccc(Br)cc2/C1=C/c1[nH]nc2c1Cc1ccccc1-2`, for which the IC50 in [3] was determined as 22.5 µM; in experiment [5], 21.1 µM; in experiment [6] it was 20.3 µM; in [7], 16.9 µM.

In the case of `COc1cc2c(cc1OC)-c1n[nH]c(/C=C3\C(=O)Nc4ccc(Cl)cc43)c1C2`, the 50% inhibitory concentration (IC50) in [3] amounted to 9.21 µM; in experiment [5], 13.5 µM; in [6], 12.3 µM; in experiment [7] it was 8.96 µM.

As for `COc1ccc2c(c1)/C(=C/c1[nH]nc3c1Cc1ccccc1-3)C(=O)N2`, the IC50 in [3] was found to be 33.9 µM; in experiment [5] it was 29.6 µM; in experiment [6], 26.7 µM; in experiment [7], 30.1 µM.

With `COc1ccc2c(c1)-c1n[nH]c(/C=C3\C(=O)Nc4ccc([N+](=O)[O-])cc43)c1C2`, the IC50 in experiment [3] is 30.8 µM; in [5], 26 µM; in experiment [6], 29.2 µM; in experiment [7] it was 22.1 µM.

Consider `COc1cc2c(cc1OC)-c1n[nH]c(/C=C3\C(=O)Nc4ccccc43)c1C2`, for which the inhibition result in experiment [8], in experiment [1], in experiment [2], in experiment [10] and in experiment [11] was “Active” throughout. In addition, the IC50 amounted to 4.36 µM in experiment [3], 2.92 µM in [5], 3.45 µM in experiment [6] and 2.16 µM in experiment [7]. Further, in experiment [9], the result was Active. Moreover, the Activity in experiment [4] is given as 23.6%.

On to `O=C1Nc2cc(Cl)ccc2/C1=C/c1[nH]nc2c1Cc1ccccc1-2`, for which the 50% inhibitory concentration (IC50) in experiment [3] turned out to be 19.4 µM; in experiment [5] it was 20.5 µM; in [6], 24.3 µM; in experiment [7], 14.6 µM.

Turning to `O=C1Nc2cc(Br)ccc2/C1=C/c1[nH]nc2c1Cc1ccccc1-2`, the IC50 in experiment [3] was found to be 34.2 µM; in [5], 35.6 µM; in experiment [6] it was 29.7 µM; in experiment [7], 30.7 µM.

Turning to `COc1ccc2c(c1)-c1n[nH]c(/C=C3\C(=O)Nc4cc(Br)ccc43)c1C2`, the IC50 in experiment [3] is 28.6 µM; in experiment [5] it was 26.1 µM; in [6], 23.4 µM; in experiment [7] it was 25.4 µM.

On to `COc1cc2c(cc1OC)-c1n[nH]c(/C=C3\C(=O)Nc4cc([N+](=O)[O-])ccc43)c1C2`, for which the IC50 in experiment [3] is 36.7 µM; in experiment [5], 34.4 µM; in experiment [6], 29.9 µM; in [7], 30.7 µM.

For `COc1ccc2c(c1)/C(=C/c1[nH]nc3c1Cc1cc(OC)c(OC)cc1-3)C(=O)N2`, the inhibition entry in [8], in [1], in experiment [2], in [10] and in experiment [11] was “Active” throughout. Besides, the IC50 in [3] was 5.1 µM; in [5], 3.43 µM; in [6], 4.14 µM; in experiment [7] it was 2.58 µM. The Activity in [4] came to 31.3%.

`COc1ccc2c(c1)-c1n[nH]c(/C=C3\C(=O)Nc4ccccc43)c1C2`: the IC50 amounted to 22.5 µM in experiment [3], 20.6 µM in experiment [5], 19.3 µM in experiment [6] and 16 µM in experiment [7].

As for `COc1cc2c(cc1OC)-c1n[nH]c(/C=C3\C(=O)Nc4cc(Br)ccc43)c1C2`, the 50% inhibitory concentration (IC50) in experiment [3] was 24.6 µM; in experiment [5], 22.5 µM; in [6] it was 20.4 µM; in [7], 20.5 µM.

Regarding `O=C1Nc2ccc(Cl)cc2/C1=C/c1[nH]nc2c1Cc1ccccc1-2`, the half-inhibitory concentration (IC50) came to 24.3 µM in experiment [3], 20.5 µM in [5], 16.8 µM in experiment [6] and 15.2 µM in [7].

As to `COc1ccc2c(c1)-c1n[nH]c(/C=C3\C(=O)Nc4ccc(Br)cc43)c1C2`, the IC50 came to 35.8 µM in experiment [3], 29.8 µM in experiment [5], 34.1 µM in experiment [6] and 30.9 µM in [7].

With `COc1ccc2c(c1)-c1n[nH]c(/C=C3\C(=O)Nc4cc(Cl)ccc43)c1C2`, the IC50 in experiment [3] came out at 21.9 µM; in experiment [5] it was 20.9 µM; in experiment [6], 19 µM; in [7], 17 µM.

With `COc1cc2c(cc1OC)-c1n[nH]c(/C=C3\C(=O)Nc4cc(Cl)ccc43)c1C2`, the inhibition entry in [8], in [1], in experiment [2], in experiment [10] and in [11] was “Active” in each case. The outcome in experiment [12], in experiment [9], in experiment [13], in [14], in [15] and in experiment [16] was Active. Also, the IC50 in experiment [3] amounted to 2.97 µM; in experiment [5] it was 2.44 µM; in experiment [6] it was 2.08 µM; in experiment [7] it was 1.33 µM. Besides, the Activity in experiment [4] came out at 30.3%.
